According to ChEMBL document CHEMBL1201862, “PubChem BioAssay data set” (2004):
The source made the active and inactive calls. For most assays here, no stated cut-off is given here; in the data, actives have a measured EC50 and inactives only a lower limit.

Tests used:
[1] = test system: Streptococcus sp. 'group A'; assay: Streptococcus pyogenes SK(-)GAS viability under kanamycin – luminescence, BacTiterGlo, confirmation, counter-screen for streptokinase expression inhibitor project, dose response (AID 1900); type: functional, organism-based
cells [2] = type: functional, cell-based
cells [3] = type: functional, cell-based; remark: listed apart in the source
Streptococcus = assay: GAS UMAA2166 growth inhibition – luminescence, BacTiterGlo, counter-screen for streptokinase expression inhibitor project, dose response (AID 1915); type: functional, organism-based;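 further: potency for reduction of bacterial viability or growth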
[4] = Counterscreen for AddAB inhibitors: absorbance-based bacterial cell-based high throughput dose response assay for inhibitors of bacterial viability. [Related pubchem assays (depositor defined):AID435030, AID449728, AID449731, AID488942, AID488955, AID488956]; type: functional
[5] = target: Heat shock protein HSP 90-alpha (Homo sapiens, UniProt P07900); type: functional, organism-based
INS1 = assay: INS-1E survival protection against cytokine death – cell-based, luminescence, retest, dose response (AID 449756); type: functional; details: Rattus norvegicus;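 further: cell death triggered by IL-1 beta plus TNF-alpha plus IFN-gamma mixture; protective hits raise ATP signal compared with cytokine alone wells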

Structure (SMILES) | EC50 [1] | EC50 (cells [2]) | EC50 (cells [3]) | EC50 (Streptococcus) | IC50 [4] | AC50 [5] | AC50 (INS1)
COc1cccc(/C=N/Nc2ccc([N+](=O)[O-])cn2)c1O | 0.912 µM (active) | > 350 µM (not active) | 5.16 µM (active) | 1.65 µM (active) | > 118 µM (inactive) | 3.85 µM (active) | 2.14 µM (active)
CCc1ccc(S(=O)(=O)/N=C2\C=C(Nc3ccc(C(=O)O)cc3)C(=O)c3ccccc32)cc1 | 0.451 µM (active) |  |  | 6.26 µM (active) |  |  | 11.3 µM (active)
Oc1c(C(c2ccccc2Cl)N2CCCC2)ccc2cccnc12 (stereo not given) |  | 27.4 µM (active) | > 350 µM (not active) |  | 95.3 µM (inactive) | 3.34 µM (active) | 3.41 µM (active)
